{
  "source": "paper PMC9369311",
  "about": "“Examination of Intracellular GPCR-Mediated Signaling with High Temporal Resolution” (International Journal of Molecular Sciences, 2022)",
  "target": "T1, DmOctα1B receptor (Drosophila melanogaster, UniProt Q7JQF1)",
  "T1 construct": "expressed in transfected cells",
  "T1 sequence (Q7JQF1 1-645)": "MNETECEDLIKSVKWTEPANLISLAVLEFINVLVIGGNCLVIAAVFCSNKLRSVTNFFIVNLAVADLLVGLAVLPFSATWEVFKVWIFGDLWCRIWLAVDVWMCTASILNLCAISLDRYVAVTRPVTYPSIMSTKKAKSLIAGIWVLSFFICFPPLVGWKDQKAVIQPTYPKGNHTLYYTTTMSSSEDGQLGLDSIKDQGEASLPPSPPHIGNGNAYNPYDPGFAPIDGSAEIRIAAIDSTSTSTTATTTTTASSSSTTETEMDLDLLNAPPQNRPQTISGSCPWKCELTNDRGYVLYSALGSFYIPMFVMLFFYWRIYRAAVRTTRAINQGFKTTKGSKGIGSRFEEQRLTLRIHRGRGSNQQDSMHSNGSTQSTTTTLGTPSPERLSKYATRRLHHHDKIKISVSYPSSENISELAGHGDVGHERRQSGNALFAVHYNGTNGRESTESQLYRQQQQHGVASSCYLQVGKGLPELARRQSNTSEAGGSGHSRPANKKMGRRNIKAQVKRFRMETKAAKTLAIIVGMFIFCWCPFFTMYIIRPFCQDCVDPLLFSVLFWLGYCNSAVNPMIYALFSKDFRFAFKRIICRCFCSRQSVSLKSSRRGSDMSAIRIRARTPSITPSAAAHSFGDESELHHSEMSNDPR",
  "experiment": "Stopped-flow Ca2+ fluorescence measurements, DmOctα1B-expressing HEK293 cells",
  "type": "cell-based",
  "details": "for response time: Fluo-4 or GCaMP3.0",
  "protocol": "As described for the fluorimetric measurements performed in 96 well plates, the stimulation of the DmOctα1B receptors with octopamine results in an efflux of Ca^2+ from the intracellular stores, which was now analyzed by stopped-flow experiments with high temporal resolution. The cells loaded with Fluo-4 or constitutively expressing GCaMP3.0 were diluted in extracellular solution (ES) to a density of 1 × 10^6 cells/mL prior to application to the stopped-flow system. The cells were mixed with increasing ligand concentrations and the fluorescence signals were monitored for 40 s (Figure 3). The increasing ligand concentrations lead to a rise in the fluorescence intensities. The initial Ca^2+ responses were detected at 1 nM octopamine and saturated at ligand concentrations ≥ 30 nM. After reaching a maximum, the fluorescence intensities decreased (Figure 3A1). This effect was more pronounced for concentrations ≤ 30 nM. In the cells expressing GCaMP3.0 (DmOctα1B-GCaMP3.0), additional increases in Ca^2+ were resolved (Figure 3B1), probably monitoring the Ca^2+ oscillations that are known to be induced upon DmOctα1B activation. To determine the ligand affinities for the receptor, the maximal fluorescence intensities were plotted against the octopamine concentrations. […] The EC50 values were obtained from nonlinear fitting of the data, using GraphPad Prism v5.04. […] Besides the determination of the EC50 values, information about reaction velocities could be gained when analyzing the first 4 s of the measurements. The increasing octopamine concentrations correlated with faster signal detection (Figure 3A2,B2). […] The reaction velocities in a concentration range from 3 nM to 300 nM octopamine were almost identical for the Fluo-4-loaded and the GCaMP3.0-expressing cells.\nFor the stopped-flow measurements, the SFM-400 system (BioLogic, Münster, Germany) was used. The main component of the stopped-flow setup is the SFM-400 module with four 10 mL syringes, which can be filled by external valves. The syringes are driven by step motors. The reactants can be mixed in three individual mixing chambers (M1–M3). The volume between M1 and M2 is 21 µL, and 31 µL between M2 and M3. The observation chamber is a quartz cuvette (FC-15) with a reaction volume of 31 µL, installed behind M3. To avoid fluctuations of the reaction mixture in the cuvette, which might lead to noisy and inconsistent signals, a hard stop valve located behind the cuvette can be closed after injection of the reactants. The stopped-flow module is controlled via a MPS-60 control unit (BioLogic). Data acquisition and operation of the system were performed with the Bio-Kine 32 v4.74 software (BioLogic).\nThe reactions in the cuvette were analyzed via the changes in the fluorescence. A 150 W Xe/Hg-lamp (ALX-220; BioLogic) was used as a light source for the excitation. The excitation light was guided via a light guide towards the cuvette. To determine the wavelength of the excitation light, a 482 nm bandpass filter (482/35 nm BrightLine® single-band bandpass filter; Semrock, Rochester, NY, USA) was used. A heat protection filter (3 mm; KG1, Schott; Mainz, Germany) was placed between the Xe/Hg-lamp and the excitation filter. The fluorescence was detected with a photomultiplier (PMS 200, BioLogic) installed rectangularly to the light path of the excitation light. Between the cuvette and the photomultiplier tube a 535 nm bandpass emission filter (XF3007 535AF35; Horiba, Oberursel, Germany) was placed to select for the emission light being detected by the photomultiplier. A voltage of 600 V was applied to the photomultiplier.\nThe fluorescence measurements were performed either directly with the cells expressing GCaMP3.0 or after loading the cells with Fluo-4-AM. Changes in the intracellular Ca^2+ were induced by stimulating the cells with a concentration series of different ligands. In the stopped-flow module, four different solutions can be mixed. […]",
  "note": "Where “and” joins values, the source holds several entries; their conditions need not be identical. Equal entries are not always repeated.",
  "data": [
    {"smiles": "NCC(O)c1ccc(O)cc1", "note": "(stereo not drawn) [octopamine]", "values": [
      {"measurement": "response time", "setting": "low ligand concentrations ≤ 3 nM (1 nM elsewhere in the source)", "value": "~ 2 s and 2 s"},
      {"measurement": "Signal Response Time", "setting": "saturating concentration, DmOctα1B cells loaded with Fluo-4, mean ± SEM", "value": "0.35 ± 0.04", "unit": "s"},
      {"measurement": "Signal Response Time", "setting": "saturating concentration, DmOctα1B-GCaMP3.0 cells, mean ± SEM", "value": "0.36 ± 0.05", "unit": "s"},
      {"measurement": "Signal Response Time", "setting": "saturating ligand concentration, DmOctα1B cell lines, Fluo-4 and GCaMP3.0", "value": 0.35, "unit": "s"},
      {"measurement": "response time", "setting": "saturating octopamine concentrations (≥30 nM; 300 nM)", "value": "~ 300 ms and ≈ 350 ms"},
      {"measurement": "concentration at which initial Ca2+ responses were detected", "setting": "stopped-flow, DmOctα1B cells", "value": 1, "unit": "nM"},
      {"measurement": "ligand concentration at which Ca2+ responses saturated", "setting": "stopped-flow, DmOctα1B cells", "value": "≥ 30", "unit": "nM"},
      {"measurement": "EC50", "setting": "stopped-flow, DmOctα1B cells loaded with Fluo-4, mean ± SEM", "value": "2.25 nM and 2.3 nM"},
      {"measurement": "EC50", "setting": "stopped-flow, DmOctα1B-GCaMP3.0 cells, mean ± SEM", "value": "1.7 ± 0.1", "unit": "nM"}
    ]}
  ]
}
